For test [1], the target named is T1, HCV NS5B (Hepatitis C virus genotype 1b, UniProt Q9WMX2).
T1 construct: The protein was expressed with an 18 amino acid C-terminal truncation to enhance the solubility; made in house; host or cells: E. coli BL21 (DE3), pET21a
Briefly: HCV NS5B RdRp enzyme assay (preincubation protocol). It is filed as biochemical. In short, it runs like this: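 C-terminally truncated (Δ18) genotype 1b NS5B from E. coli, 14 nM, added to compound, then polyA template (0.2 nM), 3H-UTP (0.29 μM) and oligo-dT12 primer precaptured on streptavidin SPA beads. 4 h at 30 °C, pH 7.5, 2% DMSO; SPA readout; IC50 from seven concentrations by logistic fit.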

The test system of test [2] is HCV replicon. Briefly: HCV replicon FRET assay. It is filed as cell-based. The conditions noted are these: Hepatitis C virus, FRET assay, read-out: EC50*. The procedure, abridged:
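HCV replicon cells, with or without Renilla luciferase reporter, incubated with titrated compounds at 37 °C; Alamar blue read for cytotoxicity. NS3 protease activity read from lysates with 20 μM EDANS/DABCYL FRET peptide (340/490 nm, kinetic), or by Dual-Glo luciferase. Background from highest protease-inhibitor wells; EC50 = 50% signal reduction.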

Like-named read-outs stand apart in the source and are kept apart here.

T1 sequence (Q9WMX2 2420-2992): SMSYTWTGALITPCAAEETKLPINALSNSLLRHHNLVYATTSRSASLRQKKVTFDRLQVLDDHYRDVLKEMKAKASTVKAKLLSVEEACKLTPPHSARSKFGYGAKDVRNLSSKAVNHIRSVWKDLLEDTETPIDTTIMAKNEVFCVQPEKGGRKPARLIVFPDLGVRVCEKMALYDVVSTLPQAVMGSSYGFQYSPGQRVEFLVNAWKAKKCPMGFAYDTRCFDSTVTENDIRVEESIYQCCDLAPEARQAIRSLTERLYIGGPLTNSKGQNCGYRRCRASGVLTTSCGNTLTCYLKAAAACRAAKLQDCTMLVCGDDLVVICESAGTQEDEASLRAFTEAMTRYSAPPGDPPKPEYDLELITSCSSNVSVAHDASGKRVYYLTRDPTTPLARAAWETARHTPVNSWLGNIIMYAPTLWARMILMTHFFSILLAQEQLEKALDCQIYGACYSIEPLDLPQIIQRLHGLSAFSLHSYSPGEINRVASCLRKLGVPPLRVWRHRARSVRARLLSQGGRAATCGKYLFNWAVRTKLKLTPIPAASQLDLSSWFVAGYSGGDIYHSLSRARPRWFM

Turning to `O=C(NS(=O)(=O)N1CCOCC1)c1ccc2c(C3CCCCC3)c3n(c2c1)CC(C(=O)N1CCOCC1)Cc1ccccc1-3` (stereo not shown), the IC50 in test [1] (Table 1, read-out: IC50*) lay in the range of 10 to 1000 nM. For the same compound, the EC50 in test [2] (Table 1) was 70 to 1000 nM.

As for `CN1CCN(S(=O)(=O)NC(=O)c2ccc3c(C4CCCCC4)c4n(c3c2)CC(C(=O)N2CCOCC2)=Cc2ccccc2-4)CC1`, the IC50 in test [1] (Table 1, read-out: IC50*) lay in the range of 10 to 1000 nM. The EC50 in test [2] (Table 1) lay in the range of 70 to 1000 nM.

Consider `O=C(NS(=O)(=O)N1CCOCC1)c1ccc2c(C3CCCCC3)c3n(c2c1)CC(C(=O)N1CCC(N2CCOCC2)CC1)=Cc1ccccc1-3`, for which, in test [1] (Table 1, read-out: IC50*), the IC50 was in the range of 10 to 1000 nM. In test [2] (Table 1), the EC50 lay within 70 to 1000 nM.

For `C[C@@H]1CN(C(=O)C2=Cc3ccccc3-c3c(C4CCCCC4)c4ccc(C(=O)NS(=O)(=O)N5CCOCC5)cc4n3C2)C[C@H](C)O1`, the IC50 in test [1] (Table 1, read-out: IC50*) is 10 to 1000 nM. Besides, the EC50 in test [2] (Table 1) is 70 to 1000 nM.

Consider `CC(=O)N1CCN(C(=O)C2=Cc3ccccc3-c3c(C4CCCCC4)c4ccc(C(=O)NS(=O)(=O)N5CCOCC5)cc4n3C2)CC1`, for which, in test [1] (Table 1, read-out: IC50*), the IC50 is 10 to 1000 nM. Also, the EC50 in test [2] (Table 1) fell in the range of 70 to 1000 nM.

Turning to `COC(=O)C1=Cc2ccccc2-c2c(C3CCCCC3)c3ccc(C(=O)NS(=O)(=O)N4CCOCC4)cc3n2C1`, the IC50 in test [1] (Table 1, read-out: IC50*) is 10 to 1000 nM. For the same compound, the EC50 in test [2] (Table 1) is 70 to 1000 nM.

For `COC(=O)c1ccc2c(C3CCCCC3)c3n(c2c1)CC(NC(=O)N1C[C@@H](C)O[C@@H](C)C1)Cc1cc(OC)ccc1-3` (stereo partly shown), the concentration for half-maximal inhibition (IC50) in test [1] (Table 1a, read-out: IC50*) was 10 to 1000 nM. Besides, the EC50 in test [2] (Table 1a) lay in the range of 30 to 1000 nM.

As to `COc1ccc2c(c1)C=C(C(=O)N1CCC(C(=O)N3CCOCC3)CC1)Cn1c-2c(C2CCCCC2)c2ccc(C(=O)NS(=O)(=O)N(C)C)cc21`, the IC50 in test [1] (Table 1a, read-out: IC50*) lay within 10 to 1000 nM. The EC50 in test [2] (Table 1a) lay within 30 to 1000 nM.

For `COc1ccc2c(c1)C=C(C(=O)N1CCOC(CNC(C)=O)C1)Cn1c-2c(C2CCCCC2)c2ccc(C(=O)NS(=O)(=O)N(C)C)cc21` (stereo not shown), the IC50 in test [1] (Table 1a, read-out: IC50*) was < 20 nM. The EC50 in test [2] (Table 1a) lay within 30 to 1000 nM.

For `COc1ccc2c(c1)C=C(C(=O)N1C[C@@H](C)N(C(C)=O)[C@@H](C)C1)Cn1c-2c(C2CCCCC2)c2ccc(C(=O)NS(=O)(=O)N(C)C)cc21`, the IC50 in test [1] (Table 1a, read-out: IC50*) is 10 to 1000 nM. Besides, in test [2] (Table 1a), the EC50 was 30 to 1000 nM.

For the compound `COc1ccc(-c2[nH]c3cc(C(=O)NS(=O)(=O)N(C)C)ccc3c2C2CCCCC2)c(C(=O)N(C)CC(=O)N(C)C)c1`, the IC50 in test [1] (Table 1a, read-out: IC50*) lay within 10 to 1000 nM. Also, in test [2] (Table 1a), the EC50 fell in the range of 30 to 1000 nM.

Take `CC(=O)NN(C)C(=O)C1Cc2ccccc2-c2c(C3CCCCC3)c3ccc(C(=O)NS(=O)(=O)N(C)C)cc3n2C1` (stereo not shown): the IC50 in test [1] (Table 1a, read-out: IC50*) lay in the range of 10 to 1000 nM. Besides, the EC50 in test [2] (Table 1a) was in the range of 30 to 1000 nM.

`COc1ccc2c(c1)C=C(C(=O)N(C)C[C@@H]1CCCO1)Cn1c-2c(C2CCCCC2)c2ccc(C(=O)NS(=O)(=O)N(C)C)cc21`: the IC50 in test [1] (Table 1a, read-out: IC50*) lay within 10 to 1000 nM. The EC50 in test [2] (Table 1a) is 30 to 1000 nM.

Regarding `COc1ccc2c(c1)C=C(C(=O)N(C)C[C@@H]1CCCO1)Cn1c-2c(C2CCCCC2)c2ccc(C(=O)O)cc21`, the IC50 in test [1] (Table 1a, read-out: IC50*) is 10 to 1000 nM. Further, the EC50 in test [2] (Table 1a) was 1000 to 10000 nM.

As for `CCOC(=O)[C@H]1C[C@@H](O)CN1C(=O)C1=Cc2cc(OC)ccc2-c2c(C3CCCCC3)c3ccc(C(=O)NS(=O)(=O)N(C)C)cc3n2C1`, the IC50 in test [1] (Table 1a, read-out: IC50*) is < 20 nM. For the same compound, in test [2] (Table 1a), the EC50 lay in the range of 30 to 1000 nM.

For `COc1ccc2c(c1)C=C(C(=O)N1CCN(C(=O)C3CC3)CC1)Cn1c-2c(C2CCCCC2)c2ccc(C(=O)NS(=O)(=O)N(C)C)cc21`, the IC50 in test [1] (Table 1a, read-out: IC50*) is 10 to 1000 nM. In addition, the EC50 in test [2] (Table 1a) was in the range of 30 to 1000 nM.

For the compound `COc1ccc2c(c1)CC(C(=O)N(C)C1CCOCC1)Cn1c-2c(C2CCCCC2)c2ccc(C(=O)NS(=O)(=O)N(C)C)cc21` (stereo not shown), in test [1] (Table 1a, read-out: IC50*), the IC50 is 10 to 1000 nM. In test [2] (Table 1a), the EC50 was 30 to 1000 nM.

As to `COc1ccc2c(c1)CC(C(=O)N(C)C1CCOCC1)Cn1c-2c(C2CCCCC2)c2ccc(C(=O)O)cc21` (stereo not shown), the IC50 in test [1] (Table 1a, read-out: IC50*) was < 20 nM. Besides, the EC50 in test [2] (Table 1a) lay in the range of 30 to 1000 nM.

Regarding `COc1ccc2c(c1)CC(NC(=O)N1CCOC(CNC(C)=O)C1)Cn1c-2c(C2CCCCC2)c2ccc(C(=O)NS(=O)(=O)N(C)C)cc21` (stereo not shown), the IC50 in test [1] (Table 1a, read-out: IC50*) was < 20 nM. In addition, the EC50 in test [2] (Table 1a) fell in the range of 30 to 1000 nM.

On to `COc1ccc2c(c1)C=C(C(=O)N1CCOC(CO)C1)Cn1c-2c(C2CCCCC2)c2ccc(C(=O)NS(=O)(=O)N(C)C)cc21` (stereo not shown), for which, in test [1] (Table 1a, read-out: IC50*), the IC50 lay within 10 to 1000 nM. Further, the EC50 in test [2] (Table 1a) fell in the range of 30 to 1000 nM.

Regarding `COc1ccc2c(c1)C=C(C(=O)N1CC(C)CC(O)C1(C)C)Cn1c-2c(C2CCCCC2)c2ccc(C(=O)NS(=O)(=O)N(C)C)cc21` (stereo not shown), the IC50 in test [1] (Table 1a, read-out: IC50*) is < 20 nM. The EC50 in test [2] (Table 1a) was in the range of 30 to 1000 nM.

`COc1ccc2c(c1)CC(C(=O)NCc1cc(C)nn1C)Cn1c-2c(C2CCCCC2)c2ccc(C(=O)NS(=O)(=O)N(C)C)cc21` (stereo not shown): the IC50 in test [1] (Table 1a, read-out: IC50*) was in the range of 10 to 1000 nM. Besides, the EC50 in test [2] (Table 1a) is 30 to 1000 nM.

Consider `COc1ccc2c(c1)CC(C(=O)NCc1cn(C)cn1)Cn1c-2c(C2CCCCC2)c2ccc(C(=O)NS(=O)(=O)N(C)C)cc21` (stereo not shown), for which, in test [1] (Table 1a, read-out: IC50*), the IC50 was in the range of 10 to 1000 nM. Moreover, the half-maximal effective concentration (EC50) in test [2] (Table 1a) lay within 30 to 1000 nM.

Source of the values: patent US7473688B2, “Indolobenzazepine HCV NS5B inhibitors” (Bristol-Myers Squibb Company, priority 2005, dated 2009).
